This passage reports ED50 results from patent publication US3931199A, “Benzopyrano and benzothiopyrano [2,3-6] pyridines” (Yoshitomi Pharmaceutical Industries, Ltd., priority 1973, dated 1976).

Molecules are shown by their SMILES. Like-named read-outs stand apart in the source and are kept apart here.

In the assay the test system is Passive Cutaneous Anaphylaxis. In words: Passive Cutaneous Anaphylaxis Test. It is filed as in vivo, Donryu-strain male rats. As to conditions: Rattus norvegicus, dose required for 50% inhibition, rats sensitized with reagin serum, egg albumin challenge after 48 hours. The procedure: A test solution containing a test compound was administered orally 1 hour before, or intraperitoneally 30 minutes before challenge. The animals were killed 30 minutes after challenge, the skin reflected, and the responses measured and scored 0 for diameter of wheal less than 5 mm, 1 for 5-10 mm,[…] 3 for 15-20 mm and 4 for more than 20 mm. The percentage inhibition was calculated using the formula: [formula]

The mark [1] stands for this setting: ip, 0.5 h, i.p., 30 minutes before challenge, read-out: ED50 i.p.
The mark [2] stands for this setting: po, 1 hour before challenge, read-out: ED50 p.o.

As a reminder, the ED50 is the dose at which the effect has come halfway, by size or by number of responders. For `CC(=O)c1ccc2oc3ncccc3c(=O)c2c1` [A, 7-acetyl-5-oxo-5H-[1]benzopyrano[2,3-b]pyridine], the ED50 under setting [1] amounted to 1 mg/kg and the ED50 under setting [2] came out at 10 mg/kg.
Consider `CC(C)C(=O)c1ccc2oc3ncccc3c(=O)c2c1` [B, 7isobutyryl-5-oxo-5H-[1]benzopyrano[2,3-b]pyridine], for which the ED50 is 1 mg/kg under setting [1] and 25 to 50 mg/kg under setting [2].
Turning to `O=C(O)c1ccc2oc3ncccc3c(=O)c2c1` [C, 5-oxo-5H-[1]benzopyrano[2,3-b]pyridine-7-carboxylic acid], the ED50 reads like this: under setting [1], 2 mg/kg; under setting [2], 25 mg/kg.
Taken in the same sequence, the figures for `O=C([O-])c1ccc2oc3nc(-c4ccccc4)ccc3c(=O)c2c1.[Na+]` [D, sodium 2-phenyl-5-oxo-5H-[1]benzopyrano[2,3-b]pyridine-7-carboxylate] were 1 mg/kg and 40 mg/kg.
